From patent EP1276722B1, “NAPHTHAMIDINE UROKINASE INHIBITORS” (ABBOTT LABORATORIES, priority 2000, dated 2001)

molecular target: T1, urokinase enzyme Abbokinase (Homo sapiens, UniProt P00749); assay: Inhibition of urokinase on chromogenic substrate S-2444; assay type: biochemical; details: read-out: Ki
T1 construct: purchased Abbott Laboratories, Abbott Park, IL
Method: Four concentrations were chosen, then 5 µl of each were diluted to a total assay volume of 200 µL. […] Several vials were reconstituted as directed on the vial, aliquoted, and stored frozen The enzyme was further diluted in assay buffer and 10 µL was used in the assay. Enzyme concentration in the assay was 2-3 nM. The assay was performed as follows: 175 µL of buffer was pipetted inta the polystyrene plate, and 5 µL solution of a compound of this invention in DMSO was added. The mixture was vortexed, treated with 10 µL of enzyme in buffer, vortexed, treated with 10 µL of substrate in water, and vortexed. […] The Spectromax® calculated the reaction rates which were used to calculate percent inhibition of the compounds of this invention versus the reaction rate of the enzyme in the absence of any inhibitor. The Ki's of the inhibitors were calculated from the percent inhibition and previously established Km.

Row | SMILES | Ki [nM]
1 | CN1CCc2ccc(C3CC3c3cc(Br)c4cc(C(=N)N)ccc4c3)cc2C1C1CCCCC1 (centres unmarked) [Example 57, 8-bromo-6-(2-(1-cyclohexyl-2-methyl-1,2,3,4-tetrahydro-7-isoquinolinyl)cyclopropyl)-2-naphthalenecarboximidamide] | 25
2 | N=C(N)c1ccc2cc(C3CC3c3ccc4c(c3)C(C3CCCCC3)=NCC4)cc(Br)c2c1 (centres unmarked) [Example 56, 8-bromo-6-(2-(1-cyclohexyl-3,4-dihydro-7-isoquinolinyl)cyclopropyl)-2-naphthalenecarboximidamide] | 18
3 | N=C(N)c1ccc2cc(C3CC3c3ccc4c(c3)C(C3CCCCC3)=NCC4)ccc2c1 (centres unmarked) [Example 9, 6-(2-(1-cyclohexyl-3,4-dihydro-7-isoquinolinyl)cyclopropyl)-2-naphthalenecarboximidamide] | 50
4 | CC(C)/C=C/c1cc(C2CC2c2ccc3c(c2)C(C(C)C)N(C)CC3)cc2ccc(C(=N)N)cc12 (centres unmarked) [Example 37, 6-(2-(1-isopropyl-2-methyl-1,2,3,4-tetrahydro-7-isoquinolinyl)cyclopropyl)-8-((1E)-3-methyl-1-butenyl)-2-naphthalenecarboximidamide] | 10
5 | CC(C)/C=C/c1cc(C2CC2c2ccc3c(c2)C(C(C)C)=NCC3)cc2ccc(C(=N)N)cc12 (centres unmarked) [Example 8, 6-(2-(1-isopropyl-3,4-dihydro-7-isoquinolinyl)cyclopropyl)-8-((1E)-3-methyl-1-butenyl)-2-naphthalenecarboximidamide] | 21
6 | CCC1CN=C(C(C)C)c2ccc(C=Cc3ccc4cc(C(=N)N)ccc4c3)cc21 (centres unmarked) [Example 55, 6-(2-(4-ethyl-1-isopropyl-3,4-dihydro-6-isoquinolinyl)ethenyl)-2-naphthalenecarboximidamide] | 255
7 | CC1c2cc(C3CC3c3ccc4cc(C(=N)N)ccc4c3)ccc2CCN1C (centres unmarked) [Example 30, 6-(2-(1,2-dimethyl-1,2,3,4-tetrahydro-7-isoquinolinyl)cyclopropyl)-2-naphthalenecarboximidamide] | 278
8 | CCCC1c2cc(C3CC3c3ccc4cc(C(=N)N)ccc4c3)ccc2CCN1C (centres unmarked) [Example 11, 6-(2-(2-methyl-1-propyl-1,2,3,4-tetrahydro-7-isoquinolinyl)cyclopropyl)-2-naphthalenecarboximidamide] | 128
9 | CC(=O)N1CCc2ccc(C3CC3c3ccc4cc(C(=N)N)ccc4c3)cc2C1C(C)C (centres unmarked) [Example 15, 6-(2-(2-acetyl-1-isopropyl-1,2,3,4-tetrahydro-7-isoquinolinyl)cyclopropyl)-2-naphthalenecarboximidamide] | 160
10 | CC(C)C1c2cc(C=Cc3ccc4cc(C(=N)N)ccc4c3)ccc2CCN1C (centres unmarked) [Example 16, 6-(2-(1-isopropyl-2-methyl-1,2,3,4-tetrahydro-7-isoquinolinyl)ethenyl)-2-naphthalenecarboximidamide] | 120
11 | CC(C)/C=C/c1cc(C2CC2c2ccc3c(c2)C(C2CCCCC2)=NCC3)cc2ccc(C(=N)N)cc12 (centres unmarked) [Example 58, 6-(2-(1-cyclohexyl-3,4-dihydro-7-isoquinolinyl)cyclopropyl)-8-((1E)-3-methyl-1-butenyl)-2-naphthalenecarboximidamide] | 10
12 | CC(C)C1=NCCc2ccc(C=Cc3cc(Br)c4cc(C(=N)N)ccc4c3)cc21 [Example 22, 8-bromo-6-(2-(1-isopropyl-3,4-dihydro-7-isoquinolinyl)ethenyl)-2-naphthalenecarboximidamide] | 291
13 | CCC1(CC)CN(C)C(C(C)C)c2ccc(C3CC3c3ccc4cc(C(=N)N)ccc4c3)cc21 (centres unmarked) [Example 32, 6-(2-(4,4-diethyl-1-isopropyl-2-methyl-1,2,3,4-tetrahydro-6-isoquinolinyl)cyclopropyl)-2-naphthalenecarboximidamide] | 350
14 | N=C(N)c1ccc2cc(C3CC3c3ccc4c(c3)C(c3ccccc3)=NCC4)ccc2c1 (centres unmarked) [Example 10, 6-(2-(1-phenyl-3,4-dihydro-7-isoquinolinyl)cyclopropyl)-2-naphthalenecarboximidamide] | 142
15 | CC(C)C1=NCCc2ccc(C3CC3c3cc(C4CCOC4)c4cc(C(=N)N)ccc4c3)cc21 (centres unmarked) [Example 7, 6-(2-(1-isopropyl-3,4-dihydro-7-isoquinolinyl)cyclopropyl)-8-tetrahydro-3-furanyl-2-naphthalenecarboximidamide] | 45
16 | CC(C)C1c2cc(C3CC3c3cc(C4CC4)c4cc(C(=N)N)ccc4c3)ccc2CCN1C (centres unmarked) [Example 39, 8-cyclopropyl-6-(2-(1-isopropyl-2-methyl-1,2,3,4-tetrahydro-7-isoquinolinyl)cyclopropyl)-2-naphthalenecarboximidamide] | 37
17 | CCC1(CC)CN=C(C(C)C)c2ccc(C3CC3c3ccc4cc(C(=N)N)ccc4c3)cc21 (centres unmarked) [Example 31, 6-(2-(4,4-diethyl-1-isopropyl-3,4-dihydro-6-isoquinolinyl)cyclopropyl)-2-naphthalenecarboximidamide] | 350
18 | CC(C)C1c2cc(C3CC3c3ccc4cc(C(=N)N)ccc4c3)ccc2CCN1Cc1cccnc1 (centres unmarked) [Example 21, 6-(2-(1-isopropyl-2-(3-pyridinylmethyl)-1,2,3,4-tetrahydro-7-isoquinolinyl)cyclopropyl)-2-naphthalenecarboximidamide] | 84

Row | SMILES | Ki [nM]
19 | N=C(N)c1ccc2cc(C3CC3c3ccc4c(c3)CCNC4)ccc2c1 (centres unmarked) [Example 46, 6-(2-(1,2,3,4-tetrahydro-6-isoquinolinyl)cyclopropyl)-2-naphthalenecarboximidamide] | 180
20 | CC(C)C1c2cc(C3CC3c3ccc4cc(C(=N)N)ccc4c3)ccc2CCN1C(C)C (centres unmarked) [Example 27, 6-(2-(1,2-diisopropyl-1,2,3,4-tetrahydro-7-isoquinolinyl)cyclopropyl)-2-naphthalenecarboximidamide] | 130
21 | COc1ccccc1-c1cc(C2CC2c2ccc3c(c2)C(C(C)C)N(C)CC3)cc2ccc(C(=N)N)cc12 (centres unmarked) [Example 40, 6-(2-(1-isopropyl-2-methyl-1,2,3,4-tetrahydro-7-isoquinolinyl)cyclopropyl)-8-(2-methoxyphenyl)-2-naphthalenecarboximidamide] | 810
22 | CC(C)C1=NCCc2ccc(C3CC3c3cc(/C=C/C(C)(C)C)c4cc(C(=N)N)ccc4c3)cc21 (centres unmarked) [Example 34, 8-((1E)-3,3-dimethyl-1-butenyl)-6-(2-(1-isopropyl-3,4-dihydro-7-isoquinolinyl)cyclopropyl)-2-naphthalenecarboximidamide] | 51
23 | COC(=O)N1CCc2ccc(C=Cc3ccc4cc(C(=N)N)ccc4c3)cc2C1C(C)C (centres unmarked) [Example 17, methyl 7-(2-(6-(amino(imino)methyl)-2-naphthyl)ethenyl)-1-isopropyl-3,4-dihydro-2(1H)-isoquinolinecarboxylate] | 250
24 | COCC=Cc1cc(C2CC2c2ccc3c(c2)C(C(C)C)=NCC3)cc2ccc(C(=N)N)cc12 (centres unmarked) [Example 4, 6-(2-(1-isopropyl-3,4-dihydro-7-isoquinolinyl)cyclopropyl)-8-(3-methoxy-1-propenyl)-2-naphthalenecarboximidamide] | 59
25 | CC(C)C1c2cc(C3CC3c3cc(-c4ccoc4)c4cc(C(=N)N)ccc4c3)ccc2CCN1C (centres unmarked) [Example 3, 8-(3-furyl)-6-(2-(1-isopropyl-2-methyl-1,2,3,4-tetrahydro-7-isoquinolinyl)cyclopropyl)-2-naphthalenecarboximidamide] | 25
26 | CC(C)C1=NCCc2ccc(C3CC3c3cc(Br)c4cc(C(=N)N)ccc4c3)cc21 (centres unmarked) [Example 35, 8-bromo-6-(2-(1-isopropyl-3,4-dihydro-7-isoquinolinyl)cyclopropyl)-2-naphthalenecarboximidamide] | 128
27 | C=Cc1cc(C2CC2c2ccc3c(c2)C(C(C)C)N(C)CC3)cc2ccc(C(=N)N)cc12 (centres unmarked) [Example 41, 6-(2-(1-isopropyl-2-methyl-1,2,3,4-tetrahydro-7-isoquinolinyl)cyclopropyl)-8-vinyl-2-naphthalenecarboximidamide] | 14
28 | C=CCN1CCc2ccc(C3CC3c3ccc4cc(C(=N)N)ccc4c3)cc2C1C(C)C (centres unmarked) [Example 25, 6-(2-(2-allyl-1-isopropyl-1,2,3,4-tetrahydro-7-isoquinolinyl)cyclopropyl)-2-naphthalenecarboximidamide] | 63
29 | CCC1CNCc2ccc(C=Cc3ccc4cc(C(=N)N)ccc4c3)cc21 (centres unmarked) [Example 50, 6-(2-(4-ethyl-1,2,3,4-tetrahydro-6-isoquinolinyl)ethenyl)-2-naphthalenecarboximidamide] | 43
30 | CCC1CN(C(C)=O)Cc2ccc(C3CC3c3ccc4cc(C(=N)N)ccc4c3)cc21 (centres unmarked) [Example 52, 6-(2-(2-acetyl-4-ethyl-1,2,3,4-tetrahydro-6-isoquinolinyl)cyclopropyl)-2-naphthalenecarboximidamide] | 530
31 | CC(C)C1c2cc(C3CC3c3cc(Br)c4cc(C(=N)N)ccc4c3)ccc2CCN1C (centres unmarked) [Example 36, 8-bromo-6-(2-(1-isopropyl-2-methyl-1,2,3,4-tetrahydro-7-isoquinolinyl)cyclopropyl)-2-naphthalenecarboximidamide] | 54
32 | CCC1CNCc2ccc(C3CC3c3ccc4cc(C(=N)N)ccc4c3)cc21 (centres unmarked) [Example 48, 6-(2-(4-ethyl-1,2,3,4-tetrahydro-6-isoquinolinyl)cyclopropyl)-2-naphthalenecarboximidamide] | 29
33 | CCC1CN(C)Cc2ccc(C3CC3c3ccc4cc(C(=N)N)ccc4c3)cc21 (centres unmarked) [Example 51, 6-(2-(4-ethyl-2-methyl-1,2,3,4-tetrahydro-6-isoquinolinyl)cyclopropyl)-2-naphthalenecarboximidamide] | 123
34 | CCC1CN=C(C(C)C)c2ccc(C3CC3c3ccc4cc(C(=N)N)ccc4c3)cc21 (centres unmarked) [Example 54, 6-(2-(4-ethyl-1-isopropyl-3,4-dihydro-6-isoquinolinyl)cyclopropyl)-2-naphthalenecarboximidamide] | 343
35 | CC(C)C1c2cc(C3CC3c3ccc4cc(C(=N)N)ccc4c3)ccc2CCN1Cc1ccccc1 (centres unmarked) [Example 19, 6-(2-(2-benzyl-1-isopropyl-1,2,3,4-tetrahydro-7-isoquinolinyl)cyclopropyl)-2-naphthalenecarboximidamide] | 144
